Experiments:
[1] = biological target: T1, EGFR L858R+T790M, endogenous (NCI-H1975) (Homo sapiens, UniProt P00533, L858R/T790M); experiment: pEGFR Y1068 ELISA assay, NCI-H1975 cells; type: cell-based; details: inhibition of phosphorylation of EGFR at Tyr1068; NCI-H1975 NSCLC cells; 2 hr compound incubation
T1 construct: NCI-H1975 (EGFR L858R+T790M, endogenous); host or cells: NCI-H1975
Method: Phosphorylation of EGFR at Y1068 was measured by PathScan® Phospho-EGF Receptor (Try1068) Sandwich ELISA kit (#7240, Cell Signaling Technology®, Danvers, Mass.). The PathScan® Phospho-EGF Receptor (Tyr1068) Sandwich ELISA Kit is a solid phase sandwich enzyme-linked immunosorbent assay (ELISA) that detects endogenous levels of phospho-EGF Receptor (Tyr1068) protein. […] All cells were cultured according to ATCC recommendations. A549, NCI-H1975, PC9, and NCI-H3255 cells were grown in RPMI media (Invitrogen, Carlsbad, Calif.) supplemented with 10% FBS (Sigma, St Louis, Mo.), and with 1% Penn/Strep (Invitrogen). PC9-DRH cells were grown in RPMI with 10% FBS and 1 μM dacomitinib.
Cells were plated at 40,000/well in complete culture media (50 μL/well) on the bottom of clear tissue culture treated microtiter plates (#3595, Corning Inc, Corning, N.Y.) and allowed to adhere overnight at 37° C., 5% CO2. The following day, compound dilution plates were prepared in 96 well clear V-bottom 0.5 mL polypropylene block plates (#3956, Corning, Inc). Each compound was prepared as a DMSO stock solution (10 mM). Compounds were tested in duplicate on each plate, with an 11-point serial dilution curve (1:3 dilution). Compound treatment (50 μL) was added from the compound dilution plate to the cell plate. […] Plates were then incubated for 2 hr at 37° C., 5% CO2. For A549 (EGFR wildtype) assay, cells were plated in full-serum (10%) media for 24 hr prior to compound treatment; cells were treated in full serum media as described and then stimulated for 10 min with EGF (40 ng/mL/starvation media, Invitrogen). Immediately prior to the end of the incubation, ice-cold lysis buffer was prepared (1× Cell Lysis Buffer (#9803, Cell Signaling Technology), 1 mM sodium orthovanadate (Na3VO4, #96508, Sigma), 1 mM phenylmethanesulfonyl fluoride (PMSF, 52332, CalBiochem/EMD Chemicals), complete Mini EDTA-free Protease Inhibitor Cocktail Tablet (1 tablet/10 mL, #11836170001, Roche, Indianapolis, Ind.), and PhosSTOP Phosphatase Inhibitor Cocktail Tablet (1 tablet/10 mL, #04906837001, Roche) in pure water. At the end of 2 hr, media was flicked off and cells were washed once with ice-cold 1 mM Na3VO4 in PBS (100 μL/well, Invitrogen). The wash was then flicked off and ice-cold lysis buffer was added to the cells (50 μL/well). The plate was shaken for 20-30 min at 4° C. to completely lyse the cells. Sample diluent (50 μL/well) was added to the ELISA plate, and the lysate (50 μL) was diluted into the sample diluent in each well of the ELISA plate. Plates were sealed and incubated overnight at 4° C. with shaking. The next day, wells were washed four times with 1× Wash Buffer; plates were taped on lint-free paper after the final wash prior to adding Add Detection Antibody (green, 100 μL/well) to each well and incubating for 1 hr at 37° C. After incubation, wells were washed as described. HRP-Linked secondary antibody (red, 100 μL/well) was added to each well and incubated for 30 min at 37° C. After incubation, the wells were washed as described. TMB Substrate (100 μL/well) was added to each well and the plate incubated for 10 min at 37° C. or 30 min at rt maximum. Stop Solution (100 μL/well) was added to each well at the end of the incubation and plates were shaken gently for a few seconds. Absorbance was read at 450 nm within 30 min after addition of Stop Solution on a PerkinElmer EnVision Excite Multilabel Reader Method for Absorbance or on a Molecular Devices SpectraMax^384 Reader for absorbance. Data were analyzed using a four-parameter fit in Microsoft Excel.

[2] = biological target: T2, EGFR wildtype, endogenous (A549) (Homo sapiens, UniProt P00533); experiment: pEGFR Y1068 ELISA assay, A549 cells; type: cell-based; details: inhibition of phosphorylation of EGFR at Tyr1068; A549 NSCLC cells; 2 hr compound incubation, then stimulated 10 min with EGF (40 ng/mL)
T2 construct: A549 (EGFR wildtype, endogenous); host or cells: A549 (stimulated with EGF)
T2 sequence (P00533 25-1210): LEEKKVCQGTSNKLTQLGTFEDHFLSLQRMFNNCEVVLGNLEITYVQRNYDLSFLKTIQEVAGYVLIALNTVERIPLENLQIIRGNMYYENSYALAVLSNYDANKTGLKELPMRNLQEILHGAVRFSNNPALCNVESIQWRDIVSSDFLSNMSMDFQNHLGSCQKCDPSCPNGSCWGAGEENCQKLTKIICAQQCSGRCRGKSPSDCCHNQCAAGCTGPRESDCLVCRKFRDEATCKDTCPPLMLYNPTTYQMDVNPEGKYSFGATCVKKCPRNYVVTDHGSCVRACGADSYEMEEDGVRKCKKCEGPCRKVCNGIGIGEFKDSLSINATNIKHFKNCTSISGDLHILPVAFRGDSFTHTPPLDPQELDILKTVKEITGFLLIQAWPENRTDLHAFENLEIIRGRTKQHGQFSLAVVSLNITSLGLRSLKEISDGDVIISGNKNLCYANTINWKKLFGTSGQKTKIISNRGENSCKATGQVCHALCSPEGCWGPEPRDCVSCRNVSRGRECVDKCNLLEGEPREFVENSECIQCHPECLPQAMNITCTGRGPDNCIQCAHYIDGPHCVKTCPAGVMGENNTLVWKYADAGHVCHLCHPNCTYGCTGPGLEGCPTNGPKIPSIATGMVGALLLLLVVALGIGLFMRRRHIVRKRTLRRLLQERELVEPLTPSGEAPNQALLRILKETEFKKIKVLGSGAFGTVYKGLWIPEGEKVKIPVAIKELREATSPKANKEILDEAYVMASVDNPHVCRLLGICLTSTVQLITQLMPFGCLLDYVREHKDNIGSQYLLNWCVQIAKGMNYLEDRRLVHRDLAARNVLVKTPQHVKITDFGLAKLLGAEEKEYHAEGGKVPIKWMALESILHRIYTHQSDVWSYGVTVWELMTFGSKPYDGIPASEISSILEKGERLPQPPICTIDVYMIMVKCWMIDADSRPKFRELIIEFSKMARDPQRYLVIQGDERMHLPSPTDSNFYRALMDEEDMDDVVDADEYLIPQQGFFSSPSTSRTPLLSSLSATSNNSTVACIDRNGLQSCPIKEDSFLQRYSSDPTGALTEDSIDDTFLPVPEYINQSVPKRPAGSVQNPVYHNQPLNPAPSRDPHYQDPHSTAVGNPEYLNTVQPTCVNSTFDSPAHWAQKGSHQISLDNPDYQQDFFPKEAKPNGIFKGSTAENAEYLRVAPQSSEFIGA

T1 sequence (P00533 25-1210 T790M/L858R): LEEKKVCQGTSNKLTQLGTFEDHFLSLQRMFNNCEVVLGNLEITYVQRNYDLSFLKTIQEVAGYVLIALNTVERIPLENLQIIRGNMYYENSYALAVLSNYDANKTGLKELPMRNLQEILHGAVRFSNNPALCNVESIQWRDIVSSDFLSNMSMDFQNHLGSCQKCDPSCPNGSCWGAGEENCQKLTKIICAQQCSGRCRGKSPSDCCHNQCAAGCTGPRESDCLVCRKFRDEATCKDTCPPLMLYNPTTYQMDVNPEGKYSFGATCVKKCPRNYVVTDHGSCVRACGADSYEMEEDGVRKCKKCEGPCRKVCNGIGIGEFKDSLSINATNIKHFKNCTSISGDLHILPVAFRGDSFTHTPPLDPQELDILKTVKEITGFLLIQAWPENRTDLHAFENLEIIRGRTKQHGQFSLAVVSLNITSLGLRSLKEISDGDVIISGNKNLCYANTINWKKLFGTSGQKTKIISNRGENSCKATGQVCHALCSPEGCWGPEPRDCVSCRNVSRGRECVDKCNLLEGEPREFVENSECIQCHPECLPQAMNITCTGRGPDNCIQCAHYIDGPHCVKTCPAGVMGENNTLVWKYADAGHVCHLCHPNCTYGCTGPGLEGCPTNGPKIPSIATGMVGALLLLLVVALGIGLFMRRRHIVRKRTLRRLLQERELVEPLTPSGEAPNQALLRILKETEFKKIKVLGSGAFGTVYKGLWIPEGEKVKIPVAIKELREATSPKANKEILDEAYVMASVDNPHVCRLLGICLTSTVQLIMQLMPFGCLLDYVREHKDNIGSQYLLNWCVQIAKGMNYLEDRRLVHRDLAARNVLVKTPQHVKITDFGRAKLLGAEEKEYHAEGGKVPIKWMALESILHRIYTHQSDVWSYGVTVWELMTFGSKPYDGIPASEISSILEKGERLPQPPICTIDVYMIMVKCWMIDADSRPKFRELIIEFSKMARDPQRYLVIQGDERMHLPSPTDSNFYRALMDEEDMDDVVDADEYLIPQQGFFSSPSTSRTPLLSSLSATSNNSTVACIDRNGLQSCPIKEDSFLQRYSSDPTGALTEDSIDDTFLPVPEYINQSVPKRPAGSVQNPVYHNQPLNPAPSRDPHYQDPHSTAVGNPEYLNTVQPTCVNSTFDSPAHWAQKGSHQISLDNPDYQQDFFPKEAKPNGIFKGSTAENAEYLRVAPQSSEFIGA

| IC50 [1] [µM] | IC50 [2] [µM] | SMILES |
| --- | --- | --- |
| 0.014 |  | C=CC(=O)N[C@@H]1CN(c2nc(Nc3ccc(N4CCN(C)CC4)cc3)c3ncn(C(C)C)c3n2)C[C@H]1OC (relative stereo) [Example 47, N-((trans)-1-(9-isopropyl-6-((4-(4-methylpiperazin-1-yl)phenyl)amino)-9H-purin-2-yl)-4-methoxypyrrolidin-3-yl)acrylamide] |
| 0.058 | 0.983 | C=CC(=O)N1C[C@H](Nc2nc(Nc3cnn(C)c3)c3ncn(C(C)C)c3n2)[C@@H](F)C1 (relative stereo) [Example 58, 1-((trans)-3-fluoro-4-((9-isopropyl-6-((1-methyl-1H-pyrazol-4-yl)amino)-9H-purin-2-yl)amino)pyrrolidin-1-yl)prop-2-en-1-one] |
| 0.009 | 0.092 | C=CC(=O)N1C[C@@H]2CN(c3nc(Nc4cnn(C)c4)c4ncn(C(C)C)c4n3)C[C@]2(F)C1 (relative stereo) [Example 73, 1-(cis-3a-fluoro-5-(9-isopropyl-6-((1-methyl-1H-pyrazol-4-yl)amino)-9H-purin-2-yl)hexahydropyrrolo[3,4-c]pyrrol-2(1H)-yl)prop-2-en-1-one] |
| 1.04 | ≥ 10 | C=CC(=O)N1CCCC(c2nc(Nc3cnn(C)c3)c3ncn(C(C)C)c3n2)C1 (single isomer, unassigned) [Example 6, 1-(3-(9-isopropyl-6-((1-methyl-1H-pyrazol-4-yl)amino)-9H-purin-2-yl)piperidin-1-yl)prop-2-en-1-one] |
| 0.082 | 3.85 | C=CC(=O)N1C[C@H](Nc2nc(Nc3cnn(C)c3)c3ncn(C(C)C)c3n2)[C@@H](F)C1 (single isomer, unassigned) [Example 30, 1-((trans*)-3-fluoro-4-((9-isopropyl-6-((1-methyl-1H-pyrazol-4-yl)amino)-9H-purin-2-yl)amino)pyrrolidin-1-yl)prop-2-en-1-one] |
| 0.162 | 4.05 | C=CC(=O)N1CCC(Oc2nc(Nc3cnn(C)c3)c3ncn(C(C)C)c3n2)C1 (stereo in doubt) [Example 59, (R)-1-(3((9-isopropyl-6-((1-methyl-1H-pyrazol-4-yl)amino)-9H-purin-2-yl)oxy)pyrrolidin-1-yl)prop-2-en-1-one] |
| 0.846 | ≥ 10 | C=CC(=O)NC1(C)CCN(c2nc(Nc3ccc(N4CCN(C)CC4)cc3)c3ncn(C(C)C)c3n2)C1 (centres unmarked) [Example 10, N-(1-(9-isopropyl-6-((4-(4-methylpiperazin-1-yl)phenyl)amino)-9H-purin-2-yl)-3-methylpyrrolidin-3-yl)acrylamide] |
| 0.162 | 2.84 | C=CC(=O)N[C@H]1CCN(c2nc(Nc3cn(C)nc3OC)c3ncn(C(C)C)c3n2)C1 [Example 11, (S)-N-(1-(9-isopropyl-6-((3-methoxy-1-methyl-1H-pyrazol-4-yl)amino)-9H-purin-2-yl)pyrrolidin-3-yl)acrylamide] |
| 0.285 | ≥ 10 | C=CC(=O)N[C@H]1C[C@H](Oc2nc(Nc3ccc(N4CCN(C)CC4)cc3)c3ncn(C(C)C)c3n2)C1 [Example 14, N-((trans)-3-((9-isopropyl-6-((4-(4-methylpiperazin-1-yl)phenyl)amino)-9H-purin-2-yl)oxy)cyclobutyl)acrylamide] |
| 0.055 | 0.117 | C=CC(=O)N[C@H]1CCN(c2nc(Nc3ccc(N4CCN(C)CC4)cc3)c3ncn(C4CCC4)c3n2)C1 [Example 15] |
| 0.039 | 1.42 | C=CC(=O)NC1CN(c2nc(Nc3ccc(N4CCN(C)CC4)cc3)c3ncn(C(C)C)c3n2)C1 [Example 23, N-(1-(9-isopropyl-6-((4-(4-methylpiperazin-1-yl)phenyl)amino)-9H-purin-2-yl)azetidin-3-yl)acrylamide] |
| 0.039 | 1.14 | C=CC(=O)N(C)C1CN(c2nc(Nc3ccc(N4CCN(C)CC4)cc3)c3ncn(C(C)C)c3n2)C1 [Example 24, N-(1-(9-isopropyl-6-((4-(4-methylpiperazin-1-yl)phenyl)amino)-9H-purin-2-yl)azetidin-3-yl)-N-methylacrylamide] |

— US9290496B2, “Purine derivatives” (PFIZER INC., priority 2013, dated 2016)
